Test results published in ChEMBL document CHEMBL3792317, “Novel tetrazoloquinoline-rhodanine conjugates: Highly efficient synthesis and biological evaluation” (Bioorg Med Chem Lett, 2016).
≈ marks a conversion by molar mass, not a printed value. Calls of active or inactive are those of the source. The rule behind the calls is not given here.

Tests used:
[1] = Selectivity index, ratio of GI50 for human PANC1 cells to MIC for Mycobacterium bovis BCG ATCC 35743; format: toxicity, cell-based, PANC-1; conditions: read-out: Selectivity Index
[2] = Selectivity index, ratio of GI50 for human HeLa cells to MIC for Mycobacterium bovis BCG ATCC 35743; format: toxicity, cell-based; conditions: read-out: Selectivity Index
[3] = Selectivity index, ratio of GI50 for human HeLa cells to MIC for Mycobacterium tuberculosis H37Ra ATCC 25177; format: toxicity, cell-based; conditions: read-out: Selectivity Index
[4] = (§1) Cytotoxicity against human HeLa cells after 48 hrs by MTT assay; format: cell-based; conditions: HeLa cells
[5] = (§2) Cytotoxicity against human A549 cells after 48 hrs by MTT assay; format: cell-based; conditions: A549 cells
[6] = Antitubercular activity against Mycobacterium bovis BCG ATCC 35743 incubated for 40 mins by XTT Reduction Menadione Assay; format: functional, Mycobacterium bovis BCG str. ATCC 35743; conditions: Mycobacterium tuberculosis variant bovis BCG, ATCC 35743, 40 min
[7] = system: Mycobacterium bovis BCG str. ATCC 35743; experiment: Antitubercular activity against active Mycobacterium bovis BCG ATCC 35743 incubated for 40 mins by XTT Reduction Menadione Assay; format: functional
[8] = Selectivity index, ratio of GI50 for human PANC1 cells to MIC for Mycobacterium tuberculosis H37Ra ATCC 25177; format: toxicity, cell-based, PANC-1; conditions: read-out: Selectivity Index
[9] = Selectivity index, ratio of GI50 for human THP1 cells to MIC for Mycobacterium tuberculosis H37Ra ATCC 25177; format: toxicity, cell-based, THP-1; conditions: read-out: Selectivity Index
[10] = system: Mycobacterium tuberculosis; experiment: Antitubercular activity against dormant Mycobacterium tuberculosis H37Ra ATCC 25177 incubated for 40 mins by XTT Reduction Menadione Assay; format: functional; conditions: H37Ra ATCC 25177, 40 min
[11] = Selectivity index, ratio of GI50 for human A549 cells to MIC for Mycobacterium bovis BCG ATCC 35743; format: toxicity, cell-based; conditions: read-out: Selectivity Index
[12] = Cytotoxicity against human PANC1 cells after 48 hrs by MTT assay; format: cell-based, PANC-1; conditions: for GI50 at 48 h: PANC1 cells; for GI90: panc-1, 48 h
[13] = system: Mycobacterium tuberculosis; experiment: Antitubercular activity against active Mycobacterium tuberculosis H37Ra ATCC 25177 incubated for 40 mins by XTT Reduction Menadione Assay; format: functional; conditions: H37Ra ATCC 25177, 40 min
[14] = Selectivity index, ratio of GI50 for human A549 cells to MIC for Mycobacterium tuberculosis H37Ra ATCC 25177; format: toxicity, cell-based; conditions: read-out: Selectivity Index
[15] = system: Mycobacterium bovis BCG str. ATCC 35743; experiment: Antitubercular activity against dormant Mycobacterium bovis BCG ATCC 35743 incubated for 40 mins by XTT Reduction Menadione Assay; format: functional
[16] = Selectivity index, ratio of GI50 for human THP1 cells to MIC for Mycobacterium bovis BCG ATCC 35743; format: toxicity, cell-based, THP-1; conditions: read-out: Selectivity Index
[17] = system: Mycobacterium tuberculosis; experiment: Antitubercular activity against Mycobacterium tuberculosis H37Ra ATCC 25177 incubated for 40 mins by XTT Reduction Menadione Assay; format: functional; conditions: H37Ra ATCC 25177, 40 min
[18] = Cytotoxicity against human THP1 cells after 48 hrs by MTT assay; format: cell-based, THP-1; conditions: for GI50 at 48 h: THP1 cells; for GI90: thp-1, 48 h
[19] = system: Mycobacterium tuberculosis; experiment: Antitubercular activity against Mycobacterium tuberculosis H37Ra ATCC 25177 at 10 ug/ml incubated for 40 mins by XTT Reduction Menadione Assay; format: functional; conditions: H37Ra ATCC 25177, 40 min, read-out: GI
Aspergillus niger = experiment: Antifungal activity against Aspergillus niger NCIM 1196 after 48 hrs by agar cup plate method; format: functional; conditions: NCIM 1196, 48 h
[20] = system: Mycobacterium tuberculosis; experiment: Antitubercular activity against Mycobacterium tuberculosis H37Ra ATCC 25177 at 30 ug/ml incubated for 40 mins by XTT Reduction Menadione Assay; format: functional; conditions: H37Ra ATCC 25177, 40 min, read-out: GI
HeLa = experiment: as §1; format: cell-based; conditions: hela, 48 h
Cryptococcus neoformans [21] = experiment: Antifungal activity against Cryptococcus neoformans NCIM 576 after 48 hrs by agar cup plate method; format: functional; conditions: NCIM 576, 48 h
A549 = experiment: as §2; format: cell-based; conditions: a549, 48 h
Candida albicans = experiment: Antifungal activity against Candida albicans NCIM 3471 after 48 hrs by agar cup plate method; format: functional; conditions: NCIM 3471, 48 h
Fusarium oxysporum [22] = experiment: Antifungal activity against Fusarium oxysporum NCIM 1332 after 48 hrs by agar cup plate method; format: functional; conditions: NCIM 1332, 48 h
Aspergillus flavus = experiment: Antifungal activity against Aspergillus flavus NCIM 539 after 48 hrs by agar cup plate method; format: functional; conditions: NCIM 539, 48 h
[23] = system: Mycobacterium bovis BCG str. ATCC 35743; experiment: Antitubercular activity against dormant Mycobacterium bovis BCG ATCC 35743 at 3 ug/ml incubated for 40 mins by XTT Reduction Menadione Assay; format: functional
[24] = system: Mycobacterium bovis BCG str. ATCC 35743; experiment: Antitubercular activity against dormant Mycobacterium bovis BCG ATCC 35743 at 10 ug/ml incubated for 40 mins by XTT Reduction Menadione Assay; format: functional
[25] = system: Mycobacterium tuberculosis; experiment: Antitubercular activity against Mycobacterium tuberculosis H37Ra ATCC 25177 at 3 ug/ml incubated for 40 mins by XTT Reduction Menadione Assay; format: functional; conditions: H37Ra ATCC 25177, 40 min, read-out: GI
[26] = system: Mycobacterium bovis BCG str. ATCC 35743; experiment: Antitubercular activity against dormant Mycobacterium bovis BCG ATCC 35743 at 30 ug/ml incubated for 40 mins by XTT Reduction Menadione Assay; format: functional
Cryptococcus neoformans [27] = experiment: Antifungal activity against Cryptococcus neoformans NCIM 576 up to 200 ug/ml after 48 hrs by agar cup plate method; format: functional, organism-based
Staphylococcus aureus = experiment: Antibacterial activity against Staphylococcus aureus after 18 hrs by broth dilution method; format: functional
Pseudomonas fluorescens = experiment: Antibacterial activity against Pseudomonas fluorescens after 18 hrs by broth dilution method; format: functional
Escherichia coli = experiment: Antibacterial activity against Escherichia coli after 18 hrs by broth dilution method; format: functional
Bacillus subtilis = experiment: Antibacterial activity against Bacillus subtilis after 18 hrs by broth dilution method; format: functional
Fusarium oxysporum [28] = experiment: Antifungal activity against Fusarium oxysporum NCIM 1332 up to 200 ug/ml after 48 hrs by agar cup plate method; format: functional, organism-based

CO[C@H]1/C=C/O[C@@]2(C)Oc3c(C)c(O)c4c(O)c(c(/C=N/N5CCN(C)CC5)c(O)c4c3C2=O)NC(=O)/C(C)=C\C=C\[C@H](C)[C@H](O)[C@@H](C)[C@@H](O)[C@@H](C)[C@H](OC(C)=O)[C@@H]1C [RIFAMPIN]
selectivity ratio [1]: > 112 | selectivity ratio [2]: > 112 | selectivity ratio [3]: > 139 | GI50 at 48 h [4]: > 100 µg/mL | GI50 at 48 h [5]: > 100 µg/mL | MIC [6]: 0.89 µg/mL (≈ 1.08 µM) | IC90 [7]: 0.061 µg/mL (≈ 0.0741 µM) | selectivity ratio [8]: > 139 | selectivity ratio [9]: > 139 | IC90 [10]: 0.72 µg/mL (≈ 0.875 µM) | selectivity ratio [11]: > 112 | GI50 at 48 h [12]: > 100 µg/mL | IC90 [13]: 0.05 µg/mL (≈ 0.0608 µM) | selectivity ratio [14]: > 139 | IC90 [15]: 0.89 µg/mL (≈ 1.08 µM) | selectivity ratio [16]: > 112 | MIC [17]: 0.72 µg/mL (≈ 0.875 µM) | GI50 at 48 h [18]: > 100 µg/mL

Cc1ccc2cc(/C=C3\SC(=S)N(CC(=O)O)C3=O)c3nnnn3c2c1
inhibition of growth at 10 µg/mL [19]: 49.2% | MIC (Aspergillus niger): 150 µg/mL (≈ 389 µM) | inhibition of growth at 30 µg/mL [20]: 65% | GI50 at 48 h [4]: > 100 µg/mL | GI90 (HeLa): > 100 µg/mL | MIC (Cryptococcus neoformans [21]): 150 µg/mL (≈ 389 µM) | GI50 at 48 h [5]: > 100 µg/mL | GI90 (A549): > 100 µg/mL | MIC [6]: 24.2 µg/mL (≈ 62.7 µM) | MIC (Candida albicans): 75 µg/mL (≈ 195 µM) | IC90 [10]: 159 µg/mL (≈ 413 µM) | MIC (Fusarium oxysporum [22]): 100 µg/mL (≈ 259 µM) | MIC (Aspergillus flavus): 50 µg/mL (≈ 130 µM) | growth inhibition (GI) [23]: -4.5% | GI50 at 48 h [12]: > 100 µg/mL | GI90 [12]: > 100 µg/mL | IC90 [13]: > 250 µg/mL | growth inhibition (GI) [24]: 19.2% | inhibition of growth at 3 µg/mL [25]: 31.7% | IC90 [15]: 24.2 µg/mL (≈ 62.7 µM) | MIC [17]: 159 µg/mL (≈ 413 µM) | GI50 at 48 h [18]: > 100 µg/mL | GI90 [18]: > 100 µg/mL | growth inhibition (GI) [26]: 50.6%

COc1ccc2cc(/C=C3\SC(=S)NC3=O)c3nnnn3c2c1
MIC (Cryptococcus neoformans [27]): inactive | inhibition of growth at 10 µg/mL [19]: 15.6% | MIC (Aspergillus niger): 25 µg/mL (≈ 72.8 µM) | inhibition of growth at 30 µg/mL [20]: 14.1% | MIC (Staphylococcus aureus): 247 µg/mL (≈ 721 µM) | MIC [6]: > 250 µg/mL | MIC (Candida albicans): 150 µg/mL (≈ 437 µM) | MIC (Pseudomonas fluorescens): 157 µg/mL (≈ 457 µM) | MIC (Fusarium oxysporum [22]): 100 µg/mL (≈ 291 µM) | MIC (Aspergillus flavus): 100 µg/mL (≈ 291 µM) | growth inhibition (GI) [23]: -3.47% | MIC (Escherichia coli): 102 µg/mL (≈ 298 µM) | MIC (Bacillus subtilis): 246 µg/mL (≈ 716 µM) | growth inhibition (GI) [24]: -1.87% | inhibition of growth at 3 µg/mL [25]: 1.97% | MIC [17]: > 250 µg/mL | growth inhibition (GI) [26]: 3.63%

COc1ccc2c(c1)cc(/C=C1\SC(=S)NC1=O)c1nnnn12
inhibition of growth at 10 µg/mL [19]: 17.6% | MIC (Aspergillus niger): 100 µg/mL (≈ 291 µM) | inhibition of growth at 30 µg/mL [20]: -5.72% | MIC (Fusarium oxysporum [28]): inactive | MIC (Staphylococcus aureus): 144 µg/mL (≈ 419 µM) | MIC (Cryptococcus neoformans [21]): 150 µg/mL (≈ 437 µM) | MIC [6]: > 250 µg/mL | MIC (Candida albicans): 150 µg/mL (≈ 437 µM) | MIC (Pseudomonas fluorescens): 169 µg/mL (≈ 493 µM) | MIC (Aspergillus flavus): 150 µg/mL (≈ 437 µM) | growth inhibition (GI) [23]: 12.5% | MIC (Escherichia coli): 198 µg/mL (≈ 577 µM) | MIC (Bacillus subtilis): 96.8 µg/mL (≈ 282 µM) | growth inhibition (GI) [24]: 17.1% | inhibition of growth at 3 µg/mL [25]: 18.9% | MIC [17]: > 250 µg/mL | growth inhibition (GI) [26]: 32.5%

Cc1cccc2cc(/C=C3\SC(=S)NC3=O)c3nnnn3c12
inhibition of growth at 10 µg/mL [19]: 16.7% | MIC (Aspergillus niger): 25 µg/mL (≈ 76.4 µM) | inhibition of growth at 30 µg/mL [20]: 40.3% | MIC (Staphylococcus aureus): 127 µg/mL (≈ 388 µM) | GI50 at 48 h [4]: > 100 µg/mL | GI90 (HeLa): > 100 µg/mL | MIC (Cryptococcus neoformans [21]): 75 µg/mL (≈ 229 µM) | GI50 at 48 h [5]: > 100 µg/mL | GI90 (A549): > 100 µg/mL | MIC [6]: > 250 µg/mL | MIC (Candida albicans): 25 µg/mL (≈ 76.4 µM) | IC90 [10]: 148 µg/mL (≈ 453 µM) | MIC (Pseudomonas fluorescens): 148 µg/mL (≈ 451 µM) | MIC (Fusarium oxysporum [22]): 100 µg/mL (≈ 305 µM) | MIC (Aspergillus flavus): 50 µg/mL (≈ 153 µM) | growth inhibition (GI) [23]: 64% | GI50 at 48 h [12]: > 100 µg/mL | GI90 [12]: > 100 µg/mL | MIC (Escherichia coli): 173 µg/mL (≈ 529 µM) | IC90 [13]: > 250 µg/mL | MIC (Bacillus subtilis): 88.8 µg/mL (≈ 271 µM) | growth inhibition (GI) [24]: 63.3% | inhibition of growth at 3 µg/mL [25]: -9.62% | MIC [17]: 148 µg/mL (≈ 453 µM) | GI50 at 48 h [18]: > 100 µg/mL | GI90 [18]: > 100 µg/mL | growth inhibition (GI) [26]: 82.4%
